Results reported in ChEMBL document CHEMBL1140772, “Discovery of indenopyrazoles as EGFR and VEGFR-2 tyrosine kinase inhibitors by in silico high-throughput screening” (Bioorg Med Chem Lett, 2008).
Calls of active or inactive are those of the source. The calls are words filed in the database; no cut-off is given here.

Experiments:
[1] = tested on: A-431; experiment: Inhibition of human CDK in A431 cells assessed as inhibition of phosphorylation of Rb at 1 uM after 12 hrs; format: cell-based
[2] = target: Receptor tyrosine-protein kinase erbB-2 (Homo sapiens) (UniProt P04626); experiment: Inhibition of HER2 at 1 uM
[3] = target: Vascular endothelial growth factor receptor 2 (Homo sapiens, UniProt P35968); experiment: Inhibition of KDR
[4] = tested on: A-431; experiment: Growth inhibition of human A431 cells overexpressing EGFR after 72 hrs by MTT assay; format: functional; conditions: A-431, 72 h

Chain of Vascular endothelial growth factor receptor 2 (P35968 whole entry): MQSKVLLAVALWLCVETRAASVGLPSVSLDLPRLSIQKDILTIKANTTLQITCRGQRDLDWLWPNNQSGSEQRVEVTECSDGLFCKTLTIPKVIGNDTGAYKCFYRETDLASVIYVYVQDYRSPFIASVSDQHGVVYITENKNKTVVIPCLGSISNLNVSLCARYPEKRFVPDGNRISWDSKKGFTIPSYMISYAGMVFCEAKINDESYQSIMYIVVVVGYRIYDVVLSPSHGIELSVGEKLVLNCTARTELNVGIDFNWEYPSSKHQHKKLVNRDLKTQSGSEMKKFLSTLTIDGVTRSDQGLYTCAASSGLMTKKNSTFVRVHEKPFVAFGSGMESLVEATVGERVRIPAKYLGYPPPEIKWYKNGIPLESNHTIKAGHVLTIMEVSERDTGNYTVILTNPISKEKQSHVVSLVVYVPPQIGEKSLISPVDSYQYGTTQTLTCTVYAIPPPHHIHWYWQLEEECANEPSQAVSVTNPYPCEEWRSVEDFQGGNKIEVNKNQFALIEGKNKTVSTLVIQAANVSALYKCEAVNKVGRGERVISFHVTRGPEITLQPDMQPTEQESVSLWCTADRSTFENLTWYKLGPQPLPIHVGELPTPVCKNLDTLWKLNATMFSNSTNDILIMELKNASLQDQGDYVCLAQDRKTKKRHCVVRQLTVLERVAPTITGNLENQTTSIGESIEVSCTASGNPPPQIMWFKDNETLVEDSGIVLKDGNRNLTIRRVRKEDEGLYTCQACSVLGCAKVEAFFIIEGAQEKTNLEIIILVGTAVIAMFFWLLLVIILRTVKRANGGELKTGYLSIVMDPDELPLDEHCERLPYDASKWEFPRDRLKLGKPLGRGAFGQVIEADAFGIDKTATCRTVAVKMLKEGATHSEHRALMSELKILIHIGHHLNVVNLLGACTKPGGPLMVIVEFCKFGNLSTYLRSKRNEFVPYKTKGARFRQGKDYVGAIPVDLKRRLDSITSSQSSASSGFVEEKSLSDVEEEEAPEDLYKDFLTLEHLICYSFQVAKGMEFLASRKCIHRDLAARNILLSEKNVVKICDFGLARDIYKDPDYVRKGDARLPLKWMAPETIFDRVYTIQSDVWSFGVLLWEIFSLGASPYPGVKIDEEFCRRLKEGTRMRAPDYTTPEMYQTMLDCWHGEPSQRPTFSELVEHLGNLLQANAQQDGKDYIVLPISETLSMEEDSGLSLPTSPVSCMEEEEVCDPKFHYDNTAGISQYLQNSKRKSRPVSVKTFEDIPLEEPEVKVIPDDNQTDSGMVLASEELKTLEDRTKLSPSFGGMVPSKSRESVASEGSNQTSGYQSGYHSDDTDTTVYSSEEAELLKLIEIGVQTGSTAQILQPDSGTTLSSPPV
Chain of Receptor tyrosine-protein kinase erbB-2 (Homo sapiens) (P04626 whole entry): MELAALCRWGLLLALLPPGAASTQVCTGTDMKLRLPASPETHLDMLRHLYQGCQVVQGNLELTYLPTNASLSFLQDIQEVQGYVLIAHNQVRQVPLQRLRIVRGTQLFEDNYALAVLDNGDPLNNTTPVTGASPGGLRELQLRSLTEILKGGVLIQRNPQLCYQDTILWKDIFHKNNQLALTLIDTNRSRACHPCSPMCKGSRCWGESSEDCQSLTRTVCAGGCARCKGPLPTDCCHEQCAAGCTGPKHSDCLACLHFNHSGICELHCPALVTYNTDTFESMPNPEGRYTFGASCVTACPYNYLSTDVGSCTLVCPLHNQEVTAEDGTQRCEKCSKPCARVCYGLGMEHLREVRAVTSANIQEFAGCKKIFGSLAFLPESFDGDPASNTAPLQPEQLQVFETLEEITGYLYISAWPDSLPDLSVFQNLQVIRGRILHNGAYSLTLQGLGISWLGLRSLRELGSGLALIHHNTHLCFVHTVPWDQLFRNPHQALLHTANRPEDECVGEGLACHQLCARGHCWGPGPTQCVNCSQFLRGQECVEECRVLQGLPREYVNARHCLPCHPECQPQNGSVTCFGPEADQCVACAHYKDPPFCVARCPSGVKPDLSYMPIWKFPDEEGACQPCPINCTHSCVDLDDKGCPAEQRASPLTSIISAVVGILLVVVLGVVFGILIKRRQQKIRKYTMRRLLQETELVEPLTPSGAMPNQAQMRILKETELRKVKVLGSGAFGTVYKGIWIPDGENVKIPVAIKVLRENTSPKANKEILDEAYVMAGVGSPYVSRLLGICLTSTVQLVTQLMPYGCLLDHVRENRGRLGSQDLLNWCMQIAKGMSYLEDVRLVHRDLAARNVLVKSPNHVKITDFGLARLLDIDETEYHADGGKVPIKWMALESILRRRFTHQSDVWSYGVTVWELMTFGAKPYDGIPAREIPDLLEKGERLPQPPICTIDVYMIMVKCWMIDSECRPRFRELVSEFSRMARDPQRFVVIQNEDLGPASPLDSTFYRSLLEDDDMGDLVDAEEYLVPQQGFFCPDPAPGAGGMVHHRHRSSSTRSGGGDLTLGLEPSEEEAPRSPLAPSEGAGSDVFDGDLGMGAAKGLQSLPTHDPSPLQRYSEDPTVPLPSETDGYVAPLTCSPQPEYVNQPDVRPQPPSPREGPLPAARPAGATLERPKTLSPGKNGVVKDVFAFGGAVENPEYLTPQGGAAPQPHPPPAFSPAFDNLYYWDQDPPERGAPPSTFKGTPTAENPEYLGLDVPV

SMILES	Activity [1]	inhibition [2] [%]	IC50 [3] [nM]	GI50 [4] [nM]
Nc1ccc(NC(=O)Nc2cccc3c2C(=O)c2c-3n[nH]c2-c2ccc3c(c2)OCO3)cc1	Active	28	380	62
COc1ccc(-c2[nH]nc3c2C(=O)c2c(NC(=O)Nc4ccc(O)cc4)cccc2-3)cc1		8		> 10000
Nc1ccc(NC(=O)Nc2cccc3c2C(=O)c2c-3n[nH]c2-c2ccc(O)cc2)cc1		7	650	> 10000
Nc1ccc(NC(=O)Nc2cccc3c2C(=O)c2c-3n[nH]c2-c2ccc(O)c(O)c2)cc1		3		4790
COc1ccc(-c2[nH]nc3c2C(=O)c2c(NC(=O)Nc4ccc(N)cc4)cccc2-3)cc1		6		1590
O=C(Nc1ccc(O)cc1)Nc1cccc2c1C(=O)c1c-2n[nH]c1-c1ccc2c(c1)OCO2	Active	2	700	56
